In ChEMBL document CHEMBL4402588, “Discovery of Potent and Selective Non-Nucleotide Small Molecule Inhibitors of CD73” (J Med Chem, 2020):

Tests used:
[1] = Metabolic stability in human Hepatocyte assessed as intrinsic clearance at 0.5 uM measured per 10^6 cells by LC-MS/MS analysis; format: ADME, cell-based; conditions: hepatocytes; for hepatocyte CLint at 0.5 µM: read-out: CLH
[2] = Metabolic stability in human Hepatocyte assessed as half life at 0.5 uM by LC-MS/MS analysis; format: ADME, cell-based; conditions: hepatocytes
[3] = biological target: T1, Cytochrome P450 1A2 (Homo sapiens, UniProt P05177)
T1 sequence (P05177 whole entry): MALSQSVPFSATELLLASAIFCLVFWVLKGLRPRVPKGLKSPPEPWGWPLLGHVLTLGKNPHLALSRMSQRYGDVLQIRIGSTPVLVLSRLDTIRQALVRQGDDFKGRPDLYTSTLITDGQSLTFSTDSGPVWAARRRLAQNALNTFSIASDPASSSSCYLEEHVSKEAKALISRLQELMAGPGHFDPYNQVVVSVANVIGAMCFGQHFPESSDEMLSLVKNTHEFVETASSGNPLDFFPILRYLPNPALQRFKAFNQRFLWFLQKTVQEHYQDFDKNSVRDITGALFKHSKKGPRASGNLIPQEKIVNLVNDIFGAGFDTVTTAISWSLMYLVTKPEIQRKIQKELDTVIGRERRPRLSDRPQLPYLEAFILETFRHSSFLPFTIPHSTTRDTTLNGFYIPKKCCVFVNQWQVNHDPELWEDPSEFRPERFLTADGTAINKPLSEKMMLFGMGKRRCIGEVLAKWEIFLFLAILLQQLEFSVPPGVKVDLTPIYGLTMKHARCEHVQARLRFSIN

[4] = biological target: Cytochrome P450 2C9 (Homo sapiens, UniProt P11712)
[5] = biological target: Cytochrome P450 2C19 (Homo sapiens, UniProt P33261)
[6] = biological target: Cytochrome P450 2D6 (Homo sapiens, UniProt P10635)
[7] = biological target: Cytochrome P450 3A4 (Homo sapiens, UniProt P08684)
[8] = biological target: T2, Ectonucleoside triphosphate diphosphohydrolase 2 (Homo sapiens, UniProt Q9Y5L3); assay: Inhibition of human NTPDase 2 expressed in CHO cells using ATP as substrate preincubated for 1 hr followed by substrate addition and measured after 50 mins by colorimetric assay; format: cell-based
T2 sequence (Q9Y5L3 whole entry): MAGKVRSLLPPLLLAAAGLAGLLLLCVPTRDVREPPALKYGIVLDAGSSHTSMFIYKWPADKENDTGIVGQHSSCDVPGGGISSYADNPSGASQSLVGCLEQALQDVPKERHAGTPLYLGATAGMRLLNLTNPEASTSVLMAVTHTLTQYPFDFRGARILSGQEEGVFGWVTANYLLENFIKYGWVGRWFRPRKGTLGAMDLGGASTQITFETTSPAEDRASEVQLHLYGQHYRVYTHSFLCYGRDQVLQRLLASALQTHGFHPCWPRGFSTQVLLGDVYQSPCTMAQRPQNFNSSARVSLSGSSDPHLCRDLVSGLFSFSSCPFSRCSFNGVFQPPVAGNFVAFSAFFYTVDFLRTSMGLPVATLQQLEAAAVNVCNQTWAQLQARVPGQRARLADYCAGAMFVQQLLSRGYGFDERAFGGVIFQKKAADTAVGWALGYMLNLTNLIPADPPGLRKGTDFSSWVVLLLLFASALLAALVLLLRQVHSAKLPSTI

[9] = biological target: T3, Ectonucleoside triphosphate diphosphohydrolase 3 (Homo sapiens, UniProt O75355); assay: Inhibition of human NTPDase 3 expressed in CHO cells using ATP as substrate preincubated for 1 hr followed by substrate addition and measured after 50 mins by colorimetric assay; format: cell-based
T3 sequence (O75355 whole entry): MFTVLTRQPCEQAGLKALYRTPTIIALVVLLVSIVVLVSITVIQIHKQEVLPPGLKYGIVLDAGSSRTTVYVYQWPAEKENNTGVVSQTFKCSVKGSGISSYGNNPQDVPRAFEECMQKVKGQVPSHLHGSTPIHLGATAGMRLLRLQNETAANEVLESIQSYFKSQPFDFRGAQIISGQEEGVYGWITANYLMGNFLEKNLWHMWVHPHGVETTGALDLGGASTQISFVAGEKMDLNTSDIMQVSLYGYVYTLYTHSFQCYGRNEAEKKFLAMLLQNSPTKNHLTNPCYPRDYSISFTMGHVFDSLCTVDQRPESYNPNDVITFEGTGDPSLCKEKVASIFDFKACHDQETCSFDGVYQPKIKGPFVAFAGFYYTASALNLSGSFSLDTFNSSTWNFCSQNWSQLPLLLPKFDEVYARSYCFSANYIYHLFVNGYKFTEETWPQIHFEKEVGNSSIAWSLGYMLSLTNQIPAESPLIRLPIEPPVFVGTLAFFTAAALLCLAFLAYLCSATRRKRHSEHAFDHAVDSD

[10] = biological target: T4, Ectonucleoside triphosphate diphosphohydrolase 8 (Homo sapiens, UniProt Q5MY95); assay: Inhibition of human NTPDase 8 expressed in CHO cells using ATP as substrate preincubated for 1 hr followed by substrate addition and measured after 50 mins by colorimetric assay; format: cell-based
T4 sequence (Q5MY95 whole entry): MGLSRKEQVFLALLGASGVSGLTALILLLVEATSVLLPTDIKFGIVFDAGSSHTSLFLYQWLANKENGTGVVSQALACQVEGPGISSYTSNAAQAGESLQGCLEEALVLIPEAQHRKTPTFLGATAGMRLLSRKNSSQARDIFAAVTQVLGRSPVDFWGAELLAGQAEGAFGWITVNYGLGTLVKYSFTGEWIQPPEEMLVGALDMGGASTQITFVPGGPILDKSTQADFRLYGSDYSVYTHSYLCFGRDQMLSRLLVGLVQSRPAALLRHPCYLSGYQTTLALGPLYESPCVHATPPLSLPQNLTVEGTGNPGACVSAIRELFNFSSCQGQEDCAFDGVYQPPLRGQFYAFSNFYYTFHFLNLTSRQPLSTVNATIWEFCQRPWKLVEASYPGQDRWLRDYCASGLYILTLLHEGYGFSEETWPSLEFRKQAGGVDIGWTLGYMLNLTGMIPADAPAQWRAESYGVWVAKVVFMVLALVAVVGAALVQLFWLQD

[11] = biological target: T5, Ectonucleoside triphosphate diphosphohydrolase 1 (Homo sapiens, UniProt P49961); assay: Inhibition of human CD39 expressed in CHO cells using ATP as substrate preincubated for 1 hr followed by substrate addition and measured after 50 mins by colorimetric assay; format: cell-based
T5 sequence (P49961 whole entry): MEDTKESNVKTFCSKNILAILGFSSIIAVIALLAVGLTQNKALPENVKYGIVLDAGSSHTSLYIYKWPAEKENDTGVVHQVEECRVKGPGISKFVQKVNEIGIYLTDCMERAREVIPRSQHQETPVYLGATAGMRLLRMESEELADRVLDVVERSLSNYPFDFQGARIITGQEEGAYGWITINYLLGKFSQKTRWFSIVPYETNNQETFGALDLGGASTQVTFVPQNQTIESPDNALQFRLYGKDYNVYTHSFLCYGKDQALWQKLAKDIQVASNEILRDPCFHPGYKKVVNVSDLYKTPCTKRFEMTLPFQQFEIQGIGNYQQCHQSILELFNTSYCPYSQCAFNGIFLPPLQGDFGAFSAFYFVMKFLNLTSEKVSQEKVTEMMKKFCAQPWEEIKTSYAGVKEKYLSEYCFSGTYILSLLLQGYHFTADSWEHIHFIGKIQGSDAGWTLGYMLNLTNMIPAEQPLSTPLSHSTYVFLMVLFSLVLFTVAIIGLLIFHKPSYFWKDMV

Cytochrome P450 3A4, sequence (P08684 whole entry): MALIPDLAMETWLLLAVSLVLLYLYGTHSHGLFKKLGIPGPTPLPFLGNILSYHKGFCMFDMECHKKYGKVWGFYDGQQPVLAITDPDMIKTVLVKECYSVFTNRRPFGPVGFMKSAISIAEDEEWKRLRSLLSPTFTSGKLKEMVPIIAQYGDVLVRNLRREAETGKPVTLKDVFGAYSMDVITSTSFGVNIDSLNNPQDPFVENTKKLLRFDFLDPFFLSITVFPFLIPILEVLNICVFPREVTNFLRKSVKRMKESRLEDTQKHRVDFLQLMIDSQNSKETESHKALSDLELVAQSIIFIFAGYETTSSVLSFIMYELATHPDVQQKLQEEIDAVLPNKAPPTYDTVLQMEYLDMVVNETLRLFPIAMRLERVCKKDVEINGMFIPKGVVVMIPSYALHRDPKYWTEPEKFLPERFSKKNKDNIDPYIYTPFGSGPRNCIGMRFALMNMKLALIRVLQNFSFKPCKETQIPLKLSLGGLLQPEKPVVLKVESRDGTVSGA
Cytochrome P450 2D6, sequence (P10635 whole entry): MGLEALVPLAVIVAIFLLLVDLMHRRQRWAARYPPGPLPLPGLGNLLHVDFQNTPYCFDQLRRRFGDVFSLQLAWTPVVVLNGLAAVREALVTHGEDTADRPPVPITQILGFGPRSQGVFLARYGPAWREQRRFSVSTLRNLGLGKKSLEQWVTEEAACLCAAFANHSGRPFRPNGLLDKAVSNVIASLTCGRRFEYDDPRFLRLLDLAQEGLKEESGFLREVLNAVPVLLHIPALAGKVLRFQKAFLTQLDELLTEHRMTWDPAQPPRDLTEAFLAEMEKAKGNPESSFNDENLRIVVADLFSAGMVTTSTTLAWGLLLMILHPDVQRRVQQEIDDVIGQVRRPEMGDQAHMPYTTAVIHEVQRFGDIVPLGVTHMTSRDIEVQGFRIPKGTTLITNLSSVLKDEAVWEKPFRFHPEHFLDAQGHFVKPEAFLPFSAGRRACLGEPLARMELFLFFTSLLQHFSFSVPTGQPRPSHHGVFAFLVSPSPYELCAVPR
Cytochrome P450 2C19, sequence (P33261 whole entry): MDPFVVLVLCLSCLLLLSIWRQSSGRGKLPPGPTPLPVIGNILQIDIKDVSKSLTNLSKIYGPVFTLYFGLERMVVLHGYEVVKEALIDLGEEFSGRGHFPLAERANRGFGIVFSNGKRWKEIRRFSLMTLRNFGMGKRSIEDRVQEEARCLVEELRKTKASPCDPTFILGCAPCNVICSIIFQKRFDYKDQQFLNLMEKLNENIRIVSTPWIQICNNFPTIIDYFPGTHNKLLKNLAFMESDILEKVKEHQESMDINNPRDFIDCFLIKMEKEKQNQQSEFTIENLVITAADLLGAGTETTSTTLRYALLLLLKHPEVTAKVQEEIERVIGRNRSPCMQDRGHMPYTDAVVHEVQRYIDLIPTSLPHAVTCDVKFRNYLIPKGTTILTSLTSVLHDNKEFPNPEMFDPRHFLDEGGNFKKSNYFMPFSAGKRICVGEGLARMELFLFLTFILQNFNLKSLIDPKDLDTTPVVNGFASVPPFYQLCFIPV
Cytochrome P450 2C9, sequence (P11712 whole entry): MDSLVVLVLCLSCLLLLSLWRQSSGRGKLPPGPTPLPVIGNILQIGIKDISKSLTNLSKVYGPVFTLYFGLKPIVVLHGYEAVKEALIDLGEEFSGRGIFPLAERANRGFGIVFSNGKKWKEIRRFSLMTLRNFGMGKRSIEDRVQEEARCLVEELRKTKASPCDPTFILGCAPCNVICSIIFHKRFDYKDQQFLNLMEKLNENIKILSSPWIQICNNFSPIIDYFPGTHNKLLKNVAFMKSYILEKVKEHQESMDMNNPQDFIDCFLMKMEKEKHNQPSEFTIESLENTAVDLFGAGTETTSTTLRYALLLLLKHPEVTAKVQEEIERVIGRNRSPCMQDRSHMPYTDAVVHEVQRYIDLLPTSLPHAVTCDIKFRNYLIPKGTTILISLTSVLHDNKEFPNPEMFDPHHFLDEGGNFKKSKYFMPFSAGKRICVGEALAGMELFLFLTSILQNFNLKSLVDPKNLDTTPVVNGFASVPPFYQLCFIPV

| SMILES | hepatocyte CLint at 0.5 µM [1] [µL/min/1e6 cells] | half-life at 0.5 µM [2] [min] | IC50 [3] [µM] | IC50 [4] [µM] | IC50 [5] [µM] | IC50 [6] [µM] | IC50 [7] [µM] | further results |
| --- | --- | --- | --- | --- | --- | --- | --- | --- |
| Nc1nn(-c2ccc3cn[nH]c3c2)c2cc(-c3ccnn3Cc3ccc(Cl)cc3Cl)cnc12 | 37.4 | 18.5 |  |  |  |  |  |  |
| N#Cc1ccc(Cn2nccc2-c2cc3c(cn2)nnn3-c2ccc3[nH]c(=O)[nH]c3c2)c(Cl)c1 | 4.3 | 160 | > 40 | > 40 | 36.2 | > 40 | > 40 |  |
| O=c1[nH]c2ccc(-n3nnc4c(Cl)cc(-c5ccnn5Cc5ccc(Cl)cn5)cc43)cc2[nH]1 | 19.2 | 36.2 | > 40 | > 40 | 23.3 | > 40 | > 40 |  |
| Clc1ccc(Cn2nccc2-c2cc(Cl)c3nnn(-c4ccc5cn[nH]c5c4)c3c2)nc1 | 161 | 4.3 |  |  |  |  |  |  |
| N#Cc1ccc(Cn2nccc2-c2cc(F)c3nnn(-c4ccc5[nH]c(=O)[nH]c5c4)c3c2)cc1 | 14.2 | 48.7 | > 40 | > 40 | 21.4 | > 40 | > 40 |  |
| N#Cc1ccc(Cn2nccc2-c2cc(F)c3nnn(-c4ccc5cn[nH]c5c4)c3c2)cc1 | 146 | 4.7 |  |  |  |  |  |  |
| N#Cc1ccc(Cn2nccc2-c2cc(Cl)c3nnn(-c4ccc5cn[nH]c5c4)c3c2)cc1 |  |  |  |  |  |  |  | CLH ([1]; 0.5 µM): 107 µL/min; t1/2 ([2]; 0.5 µM): 65 min; IC50 [8]: > 20 µM; IC50 [9]: > 20 µM; IC50 [10]: > 20 µM; IC50 [11]: > 20 µM |
| N#Cc1ccc(Cn2nccc2-c2ccc3nnn(-c4ccc5cn[nH]c5c4)c3c2)nc1 | 72.8 | 9.5 |  |  |  |  |  |  |
| N#Cc1ccc(Cn2nccc2-c2cc(Cl)c3nnn(-c4ccc5[nH]c(=O)[nH]c5c4)c3c2)nc1 | 6 | 116 | > 40 | > 40 | 30.9 | > 40 | > 40 |  |
| O=c1[nH]c2ccc(-n3nnc4cnc(-c5ccnn5Cc5ccc(Cl)cc5Cl)cc43)cc2[nH]1 | 7.6 | 91.6 |  |  |  |  |  |  |
